# Reference: article PMC9228567 (2022)
# Test system: cy5-TTRS (WT Tte-PreQ1 riboswitch aptamer) (RNA, riboswitch) CUCACCUGGGUCGCAGUAACCCCAGUUAACAAAACAAGGGAGGUAAUUUU
# Assay: microscale thermophoresis
# Settings: 100 mM KCl, 1 mM MgCl2; 50 mM Tris pH 7.5, RT, DMSO; apparent, single-site fit
smiles,measurement,value
NCc1c[nH]c2nc(N)[nH]c(=O)c12,KD,0.0117 ± 0.00035 µM
